Test results as given in patent publication US12345718B2, “Method for determining the haemoglobin content of an erythroid cell” (UNIVERSITÉ PARIS EST CRÉTEIL VAL DE MARNE, priority 2016, dated 2025).
Values joined by “and” are separate entries in the source; they are usually repeats but may differ in a detail not shown here. Identical values can stand only once.

What was measured:
[1] = Complete blood count / biological data of SS patients during treatment with hydroxyurea; assay type: in vivo, human
HbF [2] = experiment: Mean HbF percentage (% HbF) by HPLC in SS patients before and during treatment with hydroxyurea
HbF [3] = experiment: HbF content of each red blood cell by flow cytometry (HbF distribution) during treatment with hydroxyurea
[4] = SS patients, M6 of hydroxyurea, median
[5] = 9 SS patients, D15-M3, mean (standard deviation)
[6] = 9 SS patients, ≥M6, mean (standard deviation)

NC(=O)NO [hydroxyurea]
Hemoglobin [1, 4]: 9.35 g/dL | MCHC [1, 4]: 34.40 g/dL | MCHCo [1, 4]: 33.80 pg | MCV [1, 4]: 100.50 femtoliter | change in mean corpuscular hemoglobin concentration (MCHC) ([1]; after 6 months of treatment): no significant variation | change in mean corpuscular volume (MCV) ([1]; after 6 months of treatment): significant increase | change in mean hemoglobin content per red blood cell (MCHCo) ([1]; after 6 months of treatment): significant increase | change in percentage of dense red blood cells ([1]; after 6 months of treatment, decrease not significant): tendency to decrease | ASAT, relative difference in % D 0 vs M 6 ([1]; patient 11): −52% and −52.7% | HbF, relative difference in % D 0 vs M 6 ([1]; patient 11): +14.5% | LDH, relative difference in % D 0 vs M 6 ([1]; patient 11): −57% and −57.7% | RETIC, relative difference in % D 0 vs M 6 ([1]; patient 11): −77% and −77.1% | ASAT (aspartate transaminase) ([1]; patient 11, M 6): 26 IU/l | HbF ([1]; patient 11, M 6): 7.1 g/dL | LDH (lactate dehydrogenase) ([1]; patient 11, M 6): 383 IU/l | MCHCo ([1]; patient 11, M 6): 38.9 pg | ASAT, relative difference in % D 0 vs M 6 ([1]; patient 24): −9.4% | HbF, relative difference in % D 0 vs M 6 ([1]; patient 24): +14.5% | LDH, relative difference in % D 0 vs M 6 ([1]; patient 24): −40.5% | RETIC, relative difference in % D 0 vs M 6 ([1]; patient 24): −57% and −57.2% | ASAT (aspartate transaminase) ([1]; patient 24, M 6): 29 IU/l | HbF ([1]; patient 24, M 6): 8.7 g/dL | LDH (lactate dehydrogenase) ([1]; patient 24, M 6): 303 IU/l | MCHCo ([1]; patient 24, M 6): 42 pg | increase of mean HbF percentage (% HbF) (HbF [2]; after 6 months of treatment, SS patients): approximately 3 fold | % HbF (HbF [2]; patient 2, M6): 25% | % HbF (HbF [2]; patient 11, M 6): 18% | % HbF (HbF [2]; patient 24, M 6): 18% | % HbF (HbF [2]; total red blood cells, SS patients, D15-M1 of hydroxyurea, median): 4.9% | % HbF (HbF [2]; total red blood cells, SS patients, M3-M4 of hydroxyurea, median): 7% | % HbF (HbF [2]; total red blood cells, SS patients, M6 of hydroxyurea, median): 10.05% | % RBCs with HbF [0; 2[ pg (HbF [3]; [5]): 65.63 (25.13 % RBCs | % RBCs with HbF [2; 4[ pg (HbF [3]; [5]): 11.32 (6.80 % RBCs | % RBCs with HbF [4; 6[ pg (HbF [3]; [5]): 4.88 (2.90 % RBCs | % RBCs with HbF [6; 8[ pg (HbF [3]; [5]): 3.42 (2.52 % RBCs | % RBCs with HbF [8; 10[ pg (HbF [3]; [5]): 2.65 (2.18 % RBCs | % RBCs with HbF [10; 15[ pg (HbF [3]; [5]): 2.41 (2.73 % RBCs | % RBCs with HbF [15; 20[ pg (HbF [3]; [5]): 4.42 (4.27 % RBCs | % RBCs with HbF ≥20 pg (HbF [3]; [5]): 5.27 (8.56 % RBCs | % RBCs with HbF [0; 2[ pg (HbF [3]; [6]): 53.17 (30.63 % RBCs | % RBCs with HbF [2; 4[ pg (HbF [3]; [6]): 15.05 (10.11 % RBCs | % RBCs with HbF [4; 6[ pg (HbF [3]; [6]): 6.70 (4.39 % RBCs | % RBCs with HbF [6; 8[ pg (HbF [3]; [6]): 3.92 (2.44 % RBCs | % RBCs with HbF [8; 10[ pg (HbF [3]; [6]): 2.72 (1.83 % RBCs | % RBCs with HbF [10; 15[ pg (HbF [3]; [6]): 2.55 (2.57 % RBCs | % RBCs with HbF [15; 20[ pg (HbF [3]; [6]): 4.29 (3.42 % RBCs | % RBCs with HbF ≥20 pg (HbF [3]; [6]): 11.60 (18.64 % RBCs | variation of red blood cells with medium-high HbF contents (HbF [3]; D0 to M6): much lower variations | change in red blood cells having a very low HbF content (HbF [3]; after 6 months of treatment): decreased greatly | increase of red blood cells with HbF content greater than 20 pg (HbF [3]; after 6 months of treatment): up to 3 fold | patients in whom HbF follows a homogeneous distribution (HbF [3]; after 6 months of treatment, heterogeneous before treatment in 8 patients, 9 analyzed): 6 patients | increase of red blood cells with HbF content greater than 20 g (HbF [3]; after 6 months of treatment, variation not significant): up to 3 times | patients in whom HbF distribution becomes homogeneous (HbF [3]; after ≥M4): 5 patients | variation in red blood cells having the lowest HbF contents (0 and 2 pg), given as increase (HbF [3]; between D0 and M6, 9 patients): approximately 25% | % RBCs with HbF [0; 2[ pg (HbF [3]; patient 2, D15-M1): 9.21 % RBCs | % RBCs with HbF [2; 4[ pg (HbF [3]; patient 2, D15-M1): 14.72 % RBCs | % RBCs with HbF [4; 6[ pg (HbF [3]; patient 2, D15-M1): 9.52 % RBCs | % RBCs with HbF [6; 8[ pg (HbF [3]; patient 2, D15-M1): 8.47 % RBCs | % RBCs with HbF [8; 10[ pg (HbF [3]; patient 2, D15-M1): 7.35 % RBCs | % RBCs with HbF [10; 15[ pg (HbF [3]; patient 2, D15-M1): 9.03 % RBCs | % RBCs with HbF [15; 20[ pg (HbF [3]; patient 2, D15-M1): 14.27 % RBCs | % RBCs with HbF ≥20 pg (HbF [3]; patient 2, D15-M1): 27.43 % RBCs | % RBCs with HbF [0; 2[ pg (HbF [3]; patient 2, M3-M4): 5.29 % RBCs | % RBCs with HbF [2; 4[ pg (HbF [3]; patient 2, M3-M4): 8.62 % RBCs | % RBCs with HbF [4; 6[ pg (HbF [3]; patient 2, M3-M4): 10.61 % RBCs | % RBCs with HbF [6; 8[ pg (HbF [3]; patient 2, M3-M4): 10.39 % RBCs
